Target: T1, CYP17 (human testicular microsome) (Homo sapiens, UniProt P05093)
T1 construct: using microsomal fraction from human testis (Celsis Cat #S00110) as the enzyme source; tissue Celsis S00110; host or cells: human testis microsomal fraction
T1 sequence (P05093 1-508): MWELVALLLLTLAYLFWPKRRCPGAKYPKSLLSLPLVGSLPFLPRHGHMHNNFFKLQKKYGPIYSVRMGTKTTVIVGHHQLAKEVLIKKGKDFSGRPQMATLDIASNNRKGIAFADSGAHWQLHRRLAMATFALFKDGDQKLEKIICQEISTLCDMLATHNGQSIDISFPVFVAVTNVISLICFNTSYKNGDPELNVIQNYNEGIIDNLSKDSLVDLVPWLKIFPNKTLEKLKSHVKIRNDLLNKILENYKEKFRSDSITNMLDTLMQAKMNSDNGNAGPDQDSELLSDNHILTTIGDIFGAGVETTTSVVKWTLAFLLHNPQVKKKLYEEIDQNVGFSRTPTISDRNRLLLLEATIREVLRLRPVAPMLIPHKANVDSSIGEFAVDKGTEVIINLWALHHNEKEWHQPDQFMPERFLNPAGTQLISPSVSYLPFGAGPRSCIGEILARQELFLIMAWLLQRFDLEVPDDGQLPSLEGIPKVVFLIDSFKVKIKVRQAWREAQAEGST
Experiment: CYP17 enzymatic assay (% inhibition at 10 nM), version 1 (Biological Example 5)
Assay type: biochemical
Details: 10 nM compound, DHEA by ELISA, read-out: Biological Example No. 5: CYP17 percent inhibition at 10 nM (version 1)

## CCc1cncc(C2=CC[C@H]3[C@@H]4CC=C5CCCC[C@]5(C)[C@H]4CC[C@]23C)c1 [Compound 64, 3-((10R,13S)-10,13-dimethyl-2,3,4,7,8,9,10,11,12,13,14,15-dodecahydro-1H-cyclopenta[a]phenanthren-17-yl)-5-ethylpyridine]
  inhibition at 0.01 µM: 1 to 50%

## Cc1cncc(C2=CC[C@H]3[C@@H]4CC=C5CCCC[C@]5(C)[C@H]4CC[C@]23C)c1 [Compound 65, 3-((10R,13S)-10,13-dimethyl-2,3,4,7,8,9,10,11,12,13,14,15-dodecahydro-1H-cyclopenta[a]phenanthren-17-yl)-5-methylpyridme]
  inhibition at 0.01 µM: 50 to 80%

## COc1cncc(C2=CC[C@H]3[C@@H]4CC=C5CCCC[C@]5(C)[C@H]4CC[C@]23C)c1 [Compound 66, 3-((10R,13S)-10,13-dimethyl-2,3,4,7,8,9,10,11,12,13,14,15-dodecahydro-1H-cyclopenta[a]phenanthren-17-yl)-5-methoxypyridine]
  inhibition at 0.01 µM: 50 to 80%

## C[C@]12CCCCC[C@@H]1CC[C@@H]1[C@@H]2CC[C@]2(C)C(c3cccnc3)=CC[C@@H]12 [Compound 90, 3-((3aS,3bR,5aR,10aS,10bS,12aS)-10a,12a-dimethyl-3,3a,3b,4,5,5a,6,7,8,9,10,10a,10b,11,12,12a-hexadecahydrocyclohepta[a]cyclopenta[f]naphthalen-1-yl)pyridine]
  inhibition at 0.01 µM: 1 to 50%

## Cc1cncc(C2=CC[C@H]3[C@@H]4CC[C@H]5CCCCC[C@]5(C)[C@H]4CC[C@]23C)c1 [Compound 91, 3-((3aS,3bR,5aR,10aS,10bS,12aS)-10a,12a-dimethyl-3,3a,3b,4,5,5a,6,7,8,9,10,10a,10b,11,12,12a-hexadecahydrocyclohepta[a]cyclopenta[f]naphthalen-1-yl)-5-methylpyridine]
  inhibition at 0.01 µM: 1 to 50%

## COc1cncc(C2=CC[C@H]3[C@@H]4CC[C@H]5CCCCC[C@]5(C)[C@H]4CC[C@]23C)c1 [Compound 92, 3-((3aS,3bR,5aR,10aS,10bS,12aS)-10a,12a-dimethyl-3,3a,3b,4,5,5a,6,7,8,9,10,10a,10b,11,12,12a-hexadecahydrocyclohepta[a]cyclopenta[f]naphthalen-1-yl)-5-methoxypyridine]
  inhibition at 0.01 µM: 50 to 80%

## CCc1cncc(C2=CC[C@H]3[C@@H]4CC[C@H]5CCCCC[C@]5(C)[C@H]4CC[C@]23C)c1 [Compound 93, 3-((3aS,3bR,5aR,10aS,10bS,12aS)-10a,12a-dimethyl-3,3a,3b,4,5,5a,6,7,8,9,10,10a,10b,11,12,12a-hexadecahydrocyclohepta[a]cyclopenta[f]naphthalen-1-yl)-5-ethylpyridine]
  inhibition at 0.01 µM: 1 to 50%

## CCOc1cncc(C2=CC[C@H]3[C@@H]4CC[C@H]5CCCCC[C@]5(C)[C@H]4CC[C@]23C)c1 [Compound 94, 3-((3aS,3bR,5aR,10aS,10bS,12aS)-10a,12a-dimethyl-3,3a,3b,4,5,5a,6,7,8,9,10,10a,10b,11,12,12a-hexadecahydrocyclohepta[a]cyclopenta[f]naphthalen-1-yl)-5-ethoxypyridine]
  inhibition at 0.01 µM: 1 to 50%

## Cc1ccncc1C1=CC[C@H]2[C@@H]3CC[C@H]4CCCCC[C@]4(C)[C@H]3CC[C@]12C [Compound 95, 3-((3aS,3bR,5aR,10aS,10bS,12aS)-10a,12a-dimethyl-3,3a,3b,4,5,5a,6,7,8,9,10,10a,10b,11,12,12a-hexadecahydrocyclohepta[a]cyclopenta[f]naphthalen-1-yl)-4-methylpyridine]
  inhibition at 0.01 µM: 1 to 50%

## C[C@]12CCCCC[C@@H]1CC[C@@H]1[C@@H]2CC[C@]2(C)C(c3cnccc3Cl)=CC[C@@H]12 [Compound 96, 4-chloro-3-((3aS,3bR,5aR,10aS,10bS,12aS)-10a,12a-dimethyl-3,3a,3b,4,5,5a,6,7,8,9,10,10a,10b,11,12,12a-hexadecahydrocyclohepta[a]cyclopenta[f]naphthalen-1-yl)pyridine]
  inhibition at 0.01 µM: 1 to 50%

## CCOc1cncc(C2=CC[C@H]3[C@@H]4CCC5N(C)C(=O)COC[C@]5(C)[C@H]4CC[C@]23C)c1 (stereo partly drawn) [Compound 99, (5aR,5bS,7aS,10aS,10bS)-8-(5-ethoxypyridin-3-yl)-1,5a,7a-trimethyl-5,5a,5b,6,7,7a,10,10a,10b,11,12,12a-dodecahydro-1H-cyclopenta[5,6]naphtho[2,1-e][1,4]oxazepin-2(3H)-one]
  inhibition at 0.01 µM: 1 to 50%

## C[C@]12CCNC(=O)CC[C@@H]1CC[C@@H]1[C@@H]2CC[C@]2(C)C(c3cccnc3)=CC[C@@H]12 [Compound 101, (6aS,6bS,8aS,11aS,11bR,13a5)-6a,8a-dimethyl-9-(pyridin-3-yl)-4,5,6,6a,6b,7,8,8a,11,11a,11b,12,13,13a-tetradecahydro-1H-cyclopenta[5,6]naphtho[1,2-d]azocin-3(2H)-one]
  inhibition at 0.01 µM: 50 to 80%

## C[C@]12CC(=O)C[C@@H]1CC[C@@H]1[C@@H]2CC[C@]2(C)C(n3ccnn3)=CC[C@@H]12 [Compound 110, (3aS,5aS)-3a,5a-dimethyl-6-(1H-1,2,3-triazol-1-yl)-3,3a,3b,4,5,5a,8,8a,8b,9,10,10a-dodecahydrodicyclopenta[a,f]naphthalen-2(1H)-one]
  inhibition at 0.01 µM: 1 to 50%

## CCOc1cncc(C2=CC[C@H]3[C@@H]4CC[C@H]5CCOCC[C@]5(C)[C@H]4CC[C@]23C)c1 [Compound 124, 3-((5aS,5bS,7aS,10aS,10bR,12aS)-5a,7a-dimethyl-2,4,5,5a,5b,6,7,7a,10,10a,10b,11,12,12a-tetradecahydro-1H-cyclopenta[5,6]naphtho[1,2-d]oxepin-8-yl)-5-ethoxypyridine]
  inhibition at 0.01 µM: 50 to 80%

## C[C@]12CCC(=O)NCC1CCC1C2CC[C@]2(C)C(n3ccnc3)=CCC12 (stereo partly drawn) [Compound 136, (5aR,7aS)-8-(1H-imidazol-1-yl)-5a,7a-dimethyl-1,2,5,5a,5b,6,7,7a,10,10a,10b,11,12,12a-tetradecahydrocyclopenta[5,6]naphtho[2,1-c]azepin-3(4H)-one]
  inhibition at 0.01 µM: 50 to 80%

## C[C@]12CCC(=O)NC[C@@H]1CC[C@@H]1[C@@H]2CC[C@]2(C)C(n3ccnn3)=CC[C@@H]12 [Compound 138, (5aR,5bS,7aS,10aS,10bR,12aR)-5a,7a-dimethyl-8-(1H-1,2,3-triazol-1-yl)-1,2,5,5a,5b,6,7,7a,10,10a,10b,11,12,12a-tetradecahydrocyclopenta[5,6]naphtho[2,1-c]azepin-3(4H)-one]
  inhibition at 0.01 µM: 1 to 50%

## C[C@]12CCNCCC1CCC1C2CC[C@]2(C)C(n3ccnn3)=CCC12 (stereo partly drawn) [Compound 139, (5aS,7aS)-5a,7a-dimethyl-8-(1H-1,2,3-triazol-1-yl)-1,2,3,4,5,5a,5b,6,7,7a,10,10a,10b,11,12,12a-hexadecahydrocyclopenta[5,6]naphtho[1,2-d]azepine]
  inhibition at 0.01 µM: 1 to 50%

## C[C@]12CCCNCC1CCC1C2CC[C@]2(C)C(n3ccnn3)=CCC12 (stereo partly drawn) [Compound 140, (5aR,7aS)-5a,7a-dimethyl-8-(1H-1,2,3-triazol-1-yl)-1,2,3,4,5,5a,5b,6,7,7a,10,10a,10b,11,12,12a-hexadecahydrocyclopenta[5,6]naphtho[2,1-c]azepine]
  inhibition at 0.01 µM: 1 to 50%

## CC(=O)N1CCC[C@@]2(C)[C@@H](CC[C@@H]3[C@@H]2CC[C@]2(C)C(n4ccnn4)=CC[C@@H]32)C1 [Compound 141, 1-((5aR,5bS,7aS,10aS,10bR,12aR)-5a,7a-dimethyl-8-(1H-1,2,3-triazol-1-yl)-3,4,5,5a,5b,6,7,7a,10,10a,10b,11,12,12a-tetradecahydrocyclopenta[5,6]naphtho[2,1-c]azepin-2(1H)-yl)ethanone]
  inhibition at 0.01 µM: < 1%

## COc1cncc(C2=CC[C@H]3[C@@H]4CCC5=CCN(C)CC[C@]5(C)[C@H]4CC[C@]23C)c1 [Compound 148]
  inhibition at 0.01 µM: 1 to 50%

## CCCOc1cncc(C2=CC[C@H]3[C@@H]4CCC5=CCN(C)CC[C@]5(C)[C@H]4CC[C@]23C)c1 [Compound 149]
  inhibition at 0.01 µM: 1 to 50%

## CCc1cncc(C2=CC[C@H]3[C@@H]4CCC5=CCN(C)CC[C@]5(C)[C@H]4CC[C@]23C)c1 [Compound 150]
  inhibition at 0.01 µM: 1 to 50%

## CN1CC[C@@]2(C)C(=CC1=O)CC[C@@H]1[C@@H]2CC[C@]2(C)C(n3cnc4ccccc43)=CC[C@@H]12 [Compound 155]
  inhibition at 0.01 µM: 1 to 50%

## C[C@]12CC[C@H]3[C@@H](CC[C@H]4CNC(=O)CC[C@@]43C)C1=CC=C2c1cccnc1 [Compound 166, (5aR,5bS,7aS,10bR,12aR)-5a,7a-dimethyl-8-(pyridin-3-yl)-1,2,5,5a,5b,6,7,7a,10b,11,12,12a-dodecahydrocyclopenta[5,6]naphtho[2,1-c]azepin-3(4H)-one]
  inhibition at 0.01 µM: 50 to 80%

## C[C@]12CC[C@H]3[C@@H](CCC4CC(=O)NCC[C@@]43C)C1=CC=C2n1ccnn1 (stereo partly drawn) [Compound 178, (5aS,5bS,7aS,10bR)-5a,7a-dimethyl-8-(1H-1,2,3-triazol-1-yl)-3,4,5,5a,5b,6,7,7a,10b,11,12,12a-dodecahydrocyclopenta[5,6]naphtho[1,2-d]azepin-2(1H)-one]
  inhibition at 0.01 µM: 1 to 50%

## C[C@]12CC[C@H]3[C@@H](CCC4CNC(=O)CC[C@@]43C)C1=CC=C2n1ccnn1 (stereo partly drawn) [Compound 179, (5aR,5bS,7aS,10bR)-5a,7a-dimethyl-8-(1H-1,2,3-triazol-1-yl)-1,2,5,5a,5b,6,7,7a,10b,11,12,12a-dodecahydrocyclopenta[5,6]naphtho[2,1-c]azepin-3(4H)-one]
  inhibition at 0.01 µM: 1 to 50%
